In data set [1] the target is neuronal nicotinic cholinergic channel receptor. As to the kind of experiment: [3H]-cytisine binding to neuronal nicotinic cholinergic channel receptors, crude synaptic membranes from whole rat brain. As for the experimental part: Binding of [^3 H]-cytisine ([^3 H]-CYT) to nicotinic receptors was accomplished using crude synaptic membrane preparations from whole rat brain (Pabreza et al., Molecular Pharmacol., 1990, 39:9). Washed membranes were stored at -80° C. prior to use. Frozen aliquots were slowly thawed and resuspended in 20 volumes of buffer (containing: 120 mM NaCl, 5 mM KCl, 2 mM MgCl2, 2 mM CaCl2 and 50 mM Tris-Cl, pH 7.4 @4° C.). After centrifuging at 20,000×g for 15 minutes, the pellets were resuspended in 30 volumes of buffer. Homogenate (containing 125-150 μg protein) was added to triplicate tubes containing concentrations of test compound and [^3 H]-CYT (1.25 nM) in a final volume of 500 μL. Samples were incubated for 60 minutes at 4° C., then rapidly filtered through Whatman GF/B filters presoaked in 0.5% polyethylimine using 3×4 mL of ice-cold buffer. The filters are counted in 4 mL of Ecolume® (ICN).

The next data set concerns CD1 mice. As to the kind of experiment: Elevated plus-maze, mouse (anxiolytic activity). Particulars: for Mouse EPM, improvement in performance at the dose range tested: doses in brackets, time in open arms, 5 min test. Format: in vivo. From the text: (§1) The elevated plus-maze is a conflict test that probes anxiolytic activity of test compounds (Lister, Psychopharmacology, 1987, 92:180). It is based on the fact that exposure of an animal to an elevated open arm leads to an avoidance response considerably stronger than that evoked by exposure to an enclosed arm.
The apparatus required to perform this test in mice is made of plywood and consists of two open arms (17×8 cm) and two enclosed arms (17×8×15 cm) extending from a central platform (8×8 cm). It is mounted on a plywood base rising 39 cm above the floor. Mice are released on the central platform and the time spent in the open and enclosed arms is recorded during a 5 minute test period. The test compounds were administered to CD1 mice 15 minutes before the test.

In another data set the test system is male Wistar rats. As to the kind of experiment: Elevated plus-maze, rat (anxiolytic activity). Format: in vivo. Particulars: doses in brackets; time in open arms.
From the text: as §1
The same protocol was applied in rats (male Wistar strain), but a larger maze was used (open arms 50×10 cm, enclosed arms 50×10×40 cm) raised 50 cm above the floor.

A further data set relates to Male CD-1 mice. The experiment in a line: Analgesia testing, automated hot-plate (55° C.). Format: in vivo, mouse. Particulars: latency to tenth jump; morphine at 12, Example 3 at 19 umol/kg. The protocol: Analgesia was measured using an automated hot-plate analgesia monitor (model #AHP16AN, Omnitech Electronics, Inc., Columbus, Ohio). The temperature of the hot-plate was maintained at 55° C. Male CD-1 mice (Charles River, Portage, Mich.) weighing 30 to 35 g were used for all testing. Mice were placed on the hot-plate and the latency to jump (i.e., first 10 jumps) was recorded. Mice were removed from the apparatus either after ten jumps were made or a maximally-allowed time of 240 sec elapsed, whichever occurred first. The design of the apparatus allowed for testing of several animals (e.g., 8) at once. The latency (sec) until the tenth jump was used for statistical analysis. Data (Table 2) were statistically evaluated with ANOVA (StatView II™ program, Abacus Concepts, Inc., Berkeley, Calif.) and compared to the reference standard analgesic morphine.

For data set [2], the system named is cardiac muscarinic receptors. Particulars: cited from earlier work.
Data set [3] deals with cortical muscarinic receptors. Particulars: cited from earlier work.
Another data set deals with parietotemporal cortex. Particulars: parietotemporal cortex of humans; cited from earlier work.
For data set [4] the following is noted: cited from earlier work.
In another data set the test system is nicotinic receptors. Particulars: chronic nicotine administration; cited from earlier work.
The subject of a further data set is rats. Particulars: acutely- and chronically-administered, rats incl. aged; cited from earlier work.
For a further data set, the system named is cigarette smokers. Particulars: double-blind studies; cited from earlier work.
For data set [5] the following is noted: in vivo; cited from earlier work.
Where [6] appears, read: [3H]-cytisine (1.25 nM), whole rat brain membranes, 4° C., 60 min.

The structures appear in SMILES notation. Where a name gives a salt, the structure may show the parent alone. Read-outs that look alike come from different tables or passages of the source.

Usually Ki stands for a measure of affinity in units of concentration, obtained from inhibition or displacement. `CN1CCCC1c1cccnc1` (single isomer, unassigned; (-)) [(-)-nicotine, reference compound] showed a Ki in [1] of […]. Also, the “Increase in time spent in the open arms of the maze vs saline” value with CD1 mice (0.62 and 1.9 μmol/kg, p<0.05, 15 minutes before test) is listed as “significant increase”. In addition, the “Mouse EPM, improvement in performance at the dose range tested” value in the data set with CD1 mice is “significant [0.19-0.62]”. Besides, the “Rat EPM, improvement in performance at the dose range tested” value in the data set with male Wistar rats is “significant [1.9]”. For the molecule `Cl.O=[N+]([O-])c1cccc(OC[C@@H]2CCCN2)c1` [Example 1, 2(S)-(3-(Nitro)phenoxymethyl)pyrrolidine hydrochloride], the inhibition constant (Ki) in data set [1] (setting [6]) was found to be 2.9 nM. Further, in the data set with CD1 mice, the “Mouse EPM, improvement in performance at the dose range tested” value was “significant [0.62-1.9]”. For the same molecule, the “Rat EPM, improvement in performance at the dose range tested” value in the data set on male Wistar rats is “significant [0.19, 6.2]”.

On to `CN1CCC[C@H]1COc1cccc([N+](=O)[O-])c1` [Example 2, 1-Methyl-2(S)-(3-(nitro)phenoxymethyl)pyrrolidine hydrochloride], for which the Ki in data set [1] (setting [6]) amounted to 9 nM. In other words, the single-digit nanomolar range. In turn, `Cl.O=[N+]([O-])c1cccc(OC[C@H]2CCCN2)c1` [Example 3, 2(R)-(3-(nitro)phenoxymethyl)pyrrolidine hydrochloride] showed an inhibitory constant (Ki) in data set [1] (setting [6]) of 2.5 nM. Moreover, in the data set on Male CD-1 mice, the “Percent change from saline” value was found to be 60.7%.

Regarding `CN1CCC[C@@H]1COc1cccc([N+](=O)[O-])c1` [Example 4, (R)-1-Methyl-2-(3-(nitro)phenoxymethyl)pyrrolidine], the affinity in data set [1] (setting [6]), expressed as Ki, was 132 nM.

In [1] (setting [6]), `Fc1cccc(OC[C@@H]2CCCN2)c1` [Example 5, 2(S)-(3-Fluorophenoxymethyl)-pyrrolidine hydrochloride] showed a Ki of 17.2 nM. In data set [1] (setting [6]), `CN1CCC[C@H]1COc1cccc(F)c1` [Example 6, 2(S)-(3-Fluorophenoxymethyl)-1-methyl-pyrrolidine hydrochloride] came in with a Ki of 5.1 nM. With `Fc1cc(F)cc(OC[C@@H]2CCCN2)c1` [Example 7, 2(S)-(3,5-Difluorophenoxymethyl)pyrrolidine hydrochloride], the Ki in [1] (setting [6]) came out at 22.3 nM. Compared with the last molecule, the Ki is about 4.4-fold higher. The same measure, in the same setting: under `CN1CCC[C@H]1COc1cc(F)cc(F)c1` [Example 8, 2(S)-(3,5-Difluorophenoxymethyl)-1-methyl-pyrrolidine hydrochloride] stands 15.7 nM. Same read-out and setting: under `Fc1cccc(OC[C@H]2CCCN2)c1` [Example 9, 2(R)-(3-Fluorophenoxymethyl)-pyrrolidine hydrochloride] stands 11.6 nM. Same read-out and setting: under `CN1CCC[C@@H]1COc1cccc(F)c1` [Example 10, 2(R)-(3-Fluorophenoxymethyl)-1-methylpyrrolidine hydrochloride] stands 90.7 nM; under `Fc1cccc(OC[C@@H]2CCCN2)c1F` [Example 11, 2(S)-(2,3-Difluorophenoxymethyl)pyrrolidine hydrochloride], 74.3 nM. `CN1CCC[C@H]1COc1cccc(F)c1F` [Example 12, 2(S)-(2,3-Difluorophenoxymethyl)-1-methylpyrrolidine hydrochloride] yielded an inhibition constant (Ki) in [1] (setting [6]) of 81.4 nM. Still for that read-out and setting: under `Fc1ccc(OC[C@@H]2CCCN2)cc1F` [Example 13, 2(S)-(3,4-Difluorophenoxymethyl)pyrrolidine hydrochloride] stands 17.5 nM. On the same count and under the same terms, the same measure for `CN1CCC[C@H]1COc1ccc(F)c(F)c1` [Example 14, 2(S)-(3,4-Difluorophenoxymethyl)-1-methylpyrrolidine hydrochloride]: 18 nM. Still for that read-out and setting: under `CN1CCC[C@H]1COc1cccc(Cl)c1` [Example 15, 2(S)-(3-Chlorophenoxymethyl)-1-methylpyrrolidine hydrochloride] stands 37.7 nM; under `CN1CCC[C@H]1COc1ccc(Cl)c(Cl)c1` [Example 16, 2(S)-(3,4-Dichlorophenoxymethyl)-1-methylpyrrolidine hydrochloride], 112 nM; under `CC(=O)Nc1cccc(OC[C@@H]2CCCN2)c1` [Example 17, (S)-2-(3-(acetamido)phenoxymethyl)pyrrolidine hydrochloride], 142 nM. In turn, `N#Cc1cccc(OC[C@@H]2CCCN2)c1` [Example 18, (S)-2-(3-cyanophenoxymethyl)pyrrolidine hydrochloride] returned a Ki in [1] (setting [6]) of 18 nM. Same read-out and setting: under `CN1CCC[C@H]1COc1cccc(C#N)c1` [Example 19, (S)-2-(3-cyanophenoxymethyl)-1-methylpyrrolidine hydrochloride] stands 64 nM.

For `c1ccc(OC[C@@H]2CCCN2)cc1` [Example 21, 2(S)-(phenoxymethyl)pyrrolidine hydrochloride], in data set [1] (setting [6]), the affinity, expressed as Ki, was 108 nM. The molecule `O=[N+]([O-])c1cccc(OC[C@@H]2CCN2)c1` [Example 22, 2(S)-(3-(nitro)phenoxymethyl)azetidine methanesulfonate] came in with a Ki in data set [1] (setting [6]) of 6.8 nM. The same measure, in the same setting: under `CN1CC[C@@H]1COc1cccc([N+](=O)[O-])c1` [Example 23, (R)-1-methyl-2-(3-(nitro)phenoxymethyl)azetidine hydrochloride] stands 29 nM. In the case of `CN1CC[C@]23c4c5ccc(O)c4O[C@H]2[C@@H](O)C=C[C@H]3[C@H]1C5` [Morphine, reference compound], in the data set on Male CD-1 mice, the “Percent change from saline” value was 257%.

`CCN1C(=O)CC2(CCN(C)CC2)C1=O` [RS-86]: the “Agonism at cardiac muscarinic receptors” value in data set [2] is listed as “full agonist”. In [3], the “Agonism at cortical muscarinic receptors” value is reported as “partial agonist”; the “Potency and selectivity for CNS receptors” value is “poor potency and lack of selectivity for CNS receptors”. `CNC1(C)C2CCC(C2)C1(C)C` (stereo not drawn) [mecamylamine]: the “Effect on resting cortical perfusion” value in the data set with parietotemporal cortex is recorded as “reduces resting cortical perfusion”. Regarding `CN1CCC[C@H]1c1cccnc1` [nicotine], the Oral bioavailability entry in data set [4] was “poor oral bioavailability”. Moreover, in the data set on nicotinic receptors, the “Up-regulation of the number of receptors” value is reported as 50-100%. Further, in the data set with rats, the “Effect on cognitive function” value was “enhances cognitive function in rats”. In addition, the “Suppressing or preventing signs and symptoms of withdrawal vs placebo” value in the data set on cigarette smokers is “far superior to a placebo”. In addition, in data set [5], the Anxiolytic properties entry was “anxiolytic properties”.

The record behind these values is US5472958A, “2-((nitro)phenoxymethyl) heterocyclic compounds that enhance cognitive function” (Abbott Laboratories, priority 1994, dated 1995).
